Patent US7928128B2, “Use of(R)-(−) -2-[5-(4-fluorophenyl)-3-pyridylmethylaminomethyl]-chromane and its physiologically acceptable salts” (Merck Patent Gesellschaft mit beschrankter Haftung, priority 2000, dated 2011)

What was measured:
[1] = tested on: patients with advanced idiopathic Parkinson's disease complicated by "peak-dose" dyskinesia; assay: Double-blind cross-over study, advanced idiopathic Parkinson's disease with peak-dose dyskinesia; format: in vivo, human; settings: add on, 2.5 to 10 mg b.i.d., versus placebo; first hour in the on state
From the text: A typical study to investigate the efficacy of the compounds according to the invention for adverse effects in Parkinson's disease is described in the following. 40 patients of either sex with advanced idiopathic Parkinson's disease complicated by “peak-dose” dyskinesia participate in a double-blind, cross-over study. The main inclusion criteria are Hoehn & Yahr stage ≧2.5 (lit.: Hoehn H. M. et al, Neurology 1967; 17: 427-442), aged 40-75 years, symptom duration of at least 5 years, and a I-dopa treatment duration of at least 3 years. […] The dose of blinded medication is titrated over a period of 3 weeks in a range from 2.5 to 10 mg b.i.d. Then the medication is kept constant for 1 week. Before the start of titration and at the end of the treatment period a I-dopa challenge is performed according to […] et al. (Movement Disord, 1999, 14 (Suppl. 1), 54-59) using video recording. The main outcome measure of the protocol is the mean score for dyskinesia during the first hour in the “on” state after I-dopa challenge. Therefore, the investigator assesses every minute the severity of dyskinesia (0=absent, 4=severe disabling involuntary movements) from 0 to 4 in seven parts of the body (upper and lower limbs, face, trunk, neck). After a 2-week wash-out period the two study arms are crossed over and the protocol is repeated.

[2] = tested on: patients with cervical dystonia (spasmodic torticollis); assay: Double-blind placebo-controlled study in cervical dystonia (TWSTRS); format: in vivo, human; settings: 2.5 mg to 20 mg b.i.d.
[3] = tested on: schizophrenic inpatients on long-term stable antipsychotic treatment; assay: Tardive dyskinesia study in schizophrenic inpatients (AIMS); format: in vivo, human; settings: add on to antipsychotic treatment, 2.5 to 20 mg b.i.d., versus placebo period
Procedure: dyskinesia is a common adverse effect of long-term treatment with neuroleptics. A typical study to investigate the efficacy of the compounds according to the invention in tardive dyskinesia is described in the following. 32 schizophrenic (DSM-III-R) inpatients aged 25-60 years on long-term stable antipsychotic treatment (duration of at least 5 years) entered the study. […] The dose of blinded medication is titrated over a period of 3 weeks in a range from 2.5 to 20 mg b.i.d. Then the medication is maintained under double-blind conditions for 2 weeks. After a 2-week wash-out period, the test drugs are crossed over. Assessments of tardive dyskinesia by means of the Abnormal Involuntary Movement Scale (AIMS, see above) and of Parkinsonian extrapyramidal side effects (UPDRS, see above) are made pretreatment and posttreatment.

[4] = tested on: patients with idiopathic Parkinson's disease; assay: Double-blind study in idiopathic Parkinson's disease (UPDRS); format: in vivo, human; settings: add on, 2.5 to 10 mg b.i.d., versus placebo
From the text: A typical study to investigate the efficacy of the compounds according to the invention in the treatment of idiopathic Parkinson's disease is described in the following. 180 patients of either sex with idiopathic Parkinson's disease participate in a double-blind study. The main inclusion criteria are Hoehn & Yahr stage ≧2.0 (Hoehn H. M. et al, Neurology 1967; 17: 427-442), aged 50-80 years, symptom duration of at least 5 years. […] The dose of blinded medication is titrated over a period of 4 weeks in a range from 2.5 to 10 mg b.i.d. Then the medication is kept constant for 1 week. Before the start of titration, at the end of the treatment period and 2 weeks after the end of the tiration period an assessment is performed in each patients using the unified Parkinson's disease rating scale (UPDRS part I to V according to S. Fahn et al., in: Recent developments in Parkinson's disease, vol. 2, MacMillan health information 1987, 153-163). […] Furthermore, the efficacy to treat tremor is shown by the means of the UPDRS.

MSA patients = assay: Study in MSA patients (UPDRS); format: in vivo, human; settings: add on, 2.5 to 20 mg b.i.d., versus placebo, cross-over
Procedure: A typical study to investigate the efficacy of the compounds according to the invention in MSA patients encompasses 30 patients of either sex with a symptom duration of at least 5 years and a significant reduction of central dopamine receptors in positron emission tomography (PET) scan. The study design is similar to that described above for Parkinson's disease. […] Before the start of titration and at the end of the treatment period a complete UPDRS assessment is performed in each patient (primary outcome measure). After a 2-week wash-out period the two study arms are crossed over and the protocol is repeated.

[5] = tested on: patients with Huntington's disease; assay: Trial in patients with Huntington's disease; format: in vivo, human; settings: add on, 2.5 to 20 mg b.i.d., versus placebo
Procedure: A typical trial to establish the effect of the compounds according to the invention on chorea, voluntary motor performance, and functional disability in patients with Huntington's disease encompasses 32 genetically diagnosed patients. […] The dose of blinded medication is titrated over a period of 3 weeks in a range from 2.5 to 20 mg b.i.d. Then the medication is held constant for 1 week. Assessments are performed in the week before and at the last day of the trial. Chorea is scored using the abnormal involuntary movement scale (AIMS, W. Guy, in: ECDEU assessment manual. Rockville Md.: US dept. of health, education and welfare, 1976: 534-537), the unified Huntington's disease rating scale (UHDRS, Huntington study group, 1996, Movement Disord, 11: 136-42), and judgement of video recordings. Voluntary motor performance is assessed using the UHDRS motor scale. Patients and their partners complete a questionnaire regarding functional disability.

Parkinson patients = settings: literature reports; cited from earlier work

Compound	mean dyskinesia scores after I-dopa challenge [1]	TWSTRS scores [2]	AIMS scores [3]	UPDRS scores [4]	UPDRS (MSA patients)	involuntary motor performance (chorea) ([5]; AIMS, UHDRS, video recordings)	voluntary motor performance ([5]; UHDRS motor scale)	anti-dyskinetic effect in Parkinson patients (Parkinson patients)
Cl.Fc1ccc(-c2cncc(CNC[C@H]3CCc4ccccc4O3)c2)cc1 [(R)-(−)-2-[5-(4-fluorophenyl)-3-pyridylmethylaminomethyl]-chromane hydrochloride]	significant clinical improvement	significant improvement	significantly lower than during placebo period	significant clinical improvement	significant clinical improvement	significant improvement	significant improvement	
O=C1CC2(CCCC2)CC(=O)N1CCCCN1CCN(c2ncccn2)CC1 [buspirone]								moderate anti-dyskinetic properties
